The values below come from US20160304466A1, “NOVEL COMPOUNDS AS JNK KINASE INHIBITORS” (THE SCRIPPS RESEARCH INSTITUTE, priority 2013, published 2016).

The target in assay [1] is JNK3/SAPK1b, Active (activated JNK3α1) (Homo sapiens, UniProt P53779). Description: Biochemical inhibition of JNK3 (HTRF enzyme inhibition assay). Particulars: for EC50: Table 1, compounds of formula (I), mean of n repeats; for IC50: Table 2, compounds of formula (II), read-out: JNK3 (nM) JNK activity (IC50). How it is done: Enzyme inhibition studies were performed in 384-well polystyrene HTRF plates (Grainier) for 22 min at ambient temperature (˜22° C.) with 0.2 μM biotinylated FL-ATF2, 1 μM ATP, 0.75 nM activated JNK3α1 (with a control in the absence of kinase for determining the basal signal) in 10 μL volumes containing the final concentrations of the following: 50 mM Hepes, pH 7.0, 2.5 mM MgCl2, 0.1 mg/ml bovine serum albumin, 1 mM DL-dithiothreitol, 0.01% Triton X-100 (all from Sigma-Aldrich), and 5% DMSO (with or without compound). A 10 point titration of all compounds was carried out in 3-fold dilutions from 10 pM-2000 nM. After 22 min, the kinase reaction was terminated by addition of 10 μl of quenching solution [50 mM Hepes, pH 7.0, with 14 mM EDTA, 0.01% Triton X-100, 400 mM KF (all from Sigma-Aldrich)]. The detection reagents, streptavidin-x1APC (200 nM) and europium cryptate-labeled rabbit polyclonal anti-phospho-ATF2 (1 nM), were from Cis-Bio. The HTRF signal was detected using an Envision plate reader (Perkin Elmer) 1 h post-quenching. The data from multiple different experiments were averaged and presented as the mean±standard deviation. IC50 values were determined by fitting the data to the equation for a four-parameter logistic. p38 enzyme inhibition assays were performed identically to the JNK3 assays with the exception that the reaction time was […], 0.5 μM biotinylated FL-ATF2, ATP=11 μM, and p38 (Millipore)=3 nM.
Chain of JNK3/SAPK1b, Active (activated JNK3α1) (P53779 1-422 isoform P53779-2): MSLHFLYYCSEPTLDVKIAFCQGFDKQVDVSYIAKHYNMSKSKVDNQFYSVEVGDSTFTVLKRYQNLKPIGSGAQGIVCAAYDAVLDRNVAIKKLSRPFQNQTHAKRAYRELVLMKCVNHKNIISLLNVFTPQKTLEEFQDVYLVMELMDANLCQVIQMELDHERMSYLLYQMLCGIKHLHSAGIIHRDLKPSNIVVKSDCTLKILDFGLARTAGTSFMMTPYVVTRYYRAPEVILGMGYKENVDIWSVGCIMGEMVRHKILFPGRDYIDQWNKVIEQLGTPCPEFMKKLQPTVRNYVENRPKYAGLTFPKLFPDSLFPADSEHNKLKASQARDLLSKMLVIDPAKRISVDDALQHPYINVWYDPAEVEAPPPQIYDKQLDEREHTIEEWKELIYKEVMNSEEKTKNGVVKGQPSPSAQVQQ

The next assay deals with JNK2α2/SAPK1c, active (Homo sapiens, UniProt P45984). Description: Biochemical inhibition of JNK2. To be noted: Table 1, compounds of formula (I); mean of n repeats. How it is done: A 10 point titration of all compounds was carried out in 3-fold dilutions from 10 pM-2000 nM. After 22 min, the kinase reaction was terminated by addition of 10 μl of quenching solution [50 mM Hepes, pH 7.0, with 14 mM EDTA, 0.01% Triton X-100, 400 mM KF (all from Sigma-Aldrich)]. The detection reagents, streptavidin-x1APC (200 nM) and europium cryptate-labeled rabbit polyclonal anti-phospho-ATF2 (1 nM), were from Cis-Bio. The HTRF signal was detected using an Envision plate reader (Perkin Elmer) 1 h post-quenching. The data from multiple different experiments were averaged and presented as the mean±standard deviation.
Chain of JNK2α2/SAPK1c, active (P45984 whole entry): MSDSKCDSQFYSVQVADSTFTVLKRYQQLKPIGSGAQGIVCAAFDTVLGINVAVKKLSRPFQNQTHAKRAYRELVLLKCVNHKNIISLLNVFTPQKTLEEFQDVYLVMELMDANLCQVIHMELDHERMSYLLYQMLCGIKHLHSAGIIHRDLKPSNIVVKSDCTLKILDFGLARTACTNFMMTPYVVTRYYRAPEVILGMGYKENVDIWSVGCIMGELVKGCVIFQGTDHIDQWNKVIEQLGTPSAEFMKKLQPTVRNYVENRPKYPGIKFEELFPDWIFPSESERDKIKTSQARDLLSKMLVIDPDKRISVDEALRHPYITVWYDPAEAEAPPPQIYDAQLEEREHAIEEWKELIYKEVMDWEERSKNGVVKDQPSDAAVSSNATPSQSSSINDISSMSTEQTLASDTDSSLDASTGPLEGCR

In the next assay the target is JNK1α1/SAP1α, Active (Homo sapiens, UniProt P45983). Description: Biochemical inhibition of JNK1. To be noted: for EC50: Table 1, compounds of formula (I), mean of n repeats; for IC50: Table 2, compounds of formula (II), read-out: JNK1 (nM) JNK activity (IC50).
Chain of JNK1α1/SAP1α, Active (P45983 1-384 isoform P45983-2): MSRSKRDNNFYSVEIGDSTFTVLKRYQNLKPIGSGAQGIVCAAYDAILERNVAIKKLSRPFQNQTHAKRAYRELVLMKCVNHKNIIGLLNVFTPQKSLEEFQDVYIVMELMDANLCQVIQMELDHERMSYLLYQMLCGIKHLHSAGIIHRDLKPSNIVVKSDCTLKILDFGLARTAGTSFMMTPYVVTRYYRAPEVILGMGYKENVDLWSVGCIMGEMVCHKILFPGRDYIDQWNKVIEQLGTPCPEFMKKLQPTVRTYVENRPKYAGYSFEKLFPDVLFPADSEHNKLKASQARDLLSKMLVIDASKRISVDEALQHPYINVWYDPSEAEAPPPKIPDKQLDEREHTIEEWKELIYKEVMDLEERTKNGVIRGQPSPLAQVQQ

Each structure is given as a SMILES string.

In the case of `Cc1ccc(CNC(=O)c2cccc(-n3cc(NC(=O)Nc4ccccc4Cl)cn3)c2)cn1` [Example I-9, 3-(4-(3-(2-chlorophenyl)ureido)-1H-pyrazol-1-yl)-N-((6-methylpyridin-3-yl)methyl)benzamide], the EC50 (as a rule, the midpoint of the concentration-response curve) in assay [1] was 200 to 1000 nM; at JNK2α2/SAPK1c, active it was 200 to 1000 nM; on JNK1α1/SAP1α, Active, more than 1000 nM.

For the molecule `Cc1cc(NC(=O)c2cccc(-n3cc(NC(=O)Nc4ccccc4Cl)cn3)c2)ccn1` [Example I-10, 3-(4-(3-(2-chlorophenyl)ureido)-1H-pyrazol-1-yl)-N-(2-methylpyridin-4-yl)benzamide], the EC50 in assay [1] was less than 200 nM; at JNK2α2/SAPK1c, active it was less than 200 nM; at JNK1α1/SAP1α, Active it was more than 1000 nM.

Take `Cc1cccc(CNC(=O)c2cccc(-n3cc(NC(=O)Nc4ccccc4Cl)cn3)c2)n1` [Example I-11, 3-(4-(3-(2-chlorophenyl)ureido)-1H-pyrazol-1-yl)-N-((6-methylpyridin-2-yl)methyl)benzamide]: the EC50 was 200 to 1000 nM in assay [1]; 200 to 1000 nM on JNK2α2/SAPK1c, active; more than 1000 nM at JNK1α1/SAP1α, Active.

Turning to `Cc1cc(NC(=O)c2cccc(-n3cc(NC(=O)Nc4ccccc4Cl)cn3)c2)cc(C)n1` [Example I-22, 3-(4-(3-(2-chlorophenyl)ureido)-1H-pyrazol-1-yl)-N-(2,6-dimethylpyridin-4-yl)benzamide], the EC50 in assay [1] is less than 200 nM; at JNK2α2/SAPK1c, active it was 200 to 1000 nM; at JNK1α1/SAP1α, Active, more than 1000 nM.

Consider `Cc1cc(NC(=O)c2cccc(-n3cc(NC(=O)Nc4ccccc4C)cn3)c2)ccn1` [Example I-51, N-(2-methylpyridin-4-yl)-3-(4-(3-(o-tolyl)ureido)-1H-pyrazol-1-yl)benzamide], for which the EC50 in assay [1] is less than 200 nM; at JNK2α2/SAPK1c, active, less than 200 nM; at JNK1α1/SAP1α, Active, 200 to 1000 nM.

As to `CC(C)n1cc(NC(=O)c2cccc(-n3cc(NC(=O)Nc4ccccc4Cl)cn3)c2)cn1` [Example I-86, 3-(4-(3-(2-chlorophenyl)ureido)-1H-pyrazol-1-yl)-N-(1-isopropyl-1H-pyrazol-4-yl)benzamide], the EC50 in assay [1] is less than 200 nM; on JNK2α2/SAPK1c, active it was 200 to 1000 nM; at JNK1α1/SAP1α, Active, more than 1000 nM.

On to `Cn1nc(C2CC2)cc1NC(=O)c1cccc(-n2cc(NC(=O)Nc3ccccc3Cl)cn2)c1` [Example I-89, 3-(4-(3-(2-chlorophenyl)ureido)-1H-pyrazol-1-yl)-N-(3-cyclopropyl-1-methyl-1 H-pyrazol-5-yl)benzamide], for which the EC50 in assay [1] was less than 200 nM; at JNK2α2/SAPK1c, active, less than 200 nM; at JNK1α1/SAP1α, Active it was more than 1000 nM.

In the case of `Cn1ccc(NC(=O)c2cccc(-n3cc(NC(=O)Nc4ccccc4Cl)cn3)c2)n1` [Example I-98, 3-(4-(3-(2-chlorophenyl)ureido)-1H-pyrazol-1-yl)-N-(1-methyl-1H-pyrazol-3-yl)benzamide], the EC50 in assay [1] is less than 200 nM; at JNK2α2/SAPK1c, active, less than 200 nM; on JNK1α1/SAP1α, Active, 200 to 1000 nM.

For the molecule `O=C(Nc1cnn(-c2cccc(C(=O)Nc3cnn(CCN4CCCC4)c3)c2)c1)Nc1ccccc1Cl` [Example I-101, 3-(4-(3-(2-chlorophenyl)ureido)-1H-pyrazol-1-yl)-N-(1-(2-(pyrrolidin-1-yl)ethyl)-1H-pyrazol-4-yl)benzamide], the EC50 is less than 200 nM in assay [1]; less than 200 nM at JNK2α2/SAPK1c, active; more than 1000 nM on JNK1α1/SAP1α, Active.

Take `Cc1nn(CCN2CCCC2)cc1NC(=O)c1cccc(-n2cc(NC(=O)Nc3ccccc3Cl)cn2)c1` [Example I-104, 3-(4-(3-(2-chlorophenyl)ureido)-1H-pyrazol-1-yl)-N-(3-methyl-1-(2-(pyrrolidin-1-yl)ethyl)-1H-pyrazol-4-yl)benzamide]: the EC50 in assay [1] is less than 200 nM; on JNK2α2/SAPK1c, active, less than 200 nM; at JNK1α1/SAP1α, Active, more than 1000 nM.

Regarding `CC(C)n1c(=O)ccc2cnc(NC3CCN(Cc4ccccc4)CC3)nc21` [Example II-6, 2-(1-Benzyl-piperidin-4-ylamino)-8-isopropyl-8H-pyrido[2,3-d]pyrimidin-7-one], the IC50 (commonly the concentration at which inhibition is half-maximal) in assay [1] is more than 1000 nM; on JNK1α1/SAP1α, Active, 200 to 1000 nM.

Consider `O=c1ccc2cnc(N[C@H]3CC[C@H](O)CC3)nc2n1C1CCCC1` [Example II-20, Trans-8-Cyclopentyl-2-(4-hydroxy-cyclohexylamino)-8H-pyrido[2,3-d]pyrimidin-7-one], for which the IC50 in assay [1] was less than 200 nM; at JNK1α1/SAP1α, Active it was less than 200 nM.

As to `CC(C)NC(=O)N1CCC(Nc2ncc3ccc(=O)n(C4CCCC4)c3n2)CC1` [Example II-21, 4-(8-Cyclopentyl-7-oxo-7,8-dihydro-pyrido[2,3-d]pyrimidin-2-ylamino)-piperidine-1-carboxylic acid isopropylamide], the IC50 in assay [1] was in the range of 200 to 1000 nM; at JNK1α1/SAP1α, Active, 200 to 1000 nM.

With `O=C(NC1CCCC1)N[C@H]1CC[C@H](Nc2ncc3ccc(=O)[nH]c3n2)CC1` [Example II-28], the IC50 in assay [1] fell in the range of 200 to 1000 nM; on JNK1α1/SAP1α, Active it was 200 to 1000 nM.

On to `Cn1c(=O)ccc2cnc(N[C@H]3CC[C@H](O)CC3)nc21` [Example II-29, Trans 2-((4-hydroxycyclohexyl)amino)-8-methylpyrido[2,3-d]pyrimidin-7(8H)-one], for which the IC50 in assay [1] is less than 200 nM; on JNK1α1/SAP1α, Active, less than 200 nM.

`c1cc2cnc(NC3CCNCC3)nc2nc1C1CC1` [Example II-40, 7-cyclopropyl-N-(piperidin-4-yl)pyrido[2,3-d]pyrimidin-2-amine]: the IC50 on JNK1α1/SAP1α, Active is more than 1000 nM.

As for `CCNC(=O)N1CCC(Nc2ncc3ccc(C4CC4)nc3n2)CC1` [Example II-42, 4-((7-cyclopropylpyrido[2,3-d]pyrimidin-2-yl)amino)-N-ethylpiperidine-1-carboxamide], the IC50 at JNK1α1/SAP1α, Active is more than 1000 nM.

On to `c1cc2cnc(NC3CCNCC3)nc2nc1N1CCCC1` [Example II-49, N-(piperidin-4-yl)-7-(pyrrolidin-1-yl)pyrido[2,3-d]pyrimidin-2-amine], for which, on JNK1α1/SAP1α, Active, the IC50 was more than 1000 nM.

For `Cc1ccc(-c2ncn(-c3ccc(Nc4nccc(-c5cccc(N6CCOCC6)c5)n4)cc3)n2)cn1` [SR-3306, reference compound], at JNK2α2/SAPK1c, active, the EC50 is 200 to 1000 nM.
